Reference: the NIST ThermoML archive (doi:10.1016/j.fluid.2017.07.020)
Values joined by “and” are separate entries in the source; they are usually repeats but may differ in a detail not shown here. Identical values can stand only once.

Legend:
[1] = solid-solid phase transition pressure; conditions: Crystal 2, DTA
[2] = Molar enthalpy of transition or fusion; conditions: DSC

ClC12CC3CC(CC(C3)C1)C2 [1-chlorotricyclo[3.3.1.1(3,7)]decane]
Conditions | Molar enthalpy of transition or fusion [kcal/mol] | solid-solid phase transition pressure [kPa]
[1], 250.4 K | – | 400
[1], 254.3 K | – | 15100
[1], 260.5 K | – | 47600
[1], 265 K | – | 52500
[1], 270.3 K | – | 73100
[1], 274.4 K | – | 98800
[1], 278.5 K | – | 104200
[1], 284.7 K | – | 123100
[1], 292.2 K | – | 153000
[1], 292.3 K | – | 150200
[1], 298.4 K | – | 173600
[1], 300.5 K | – | 199600
[1], 306.2 K | – | 204000
[1], 307 K | – | 216500
[1], 311.5 K | – | 221600
[1], 313.1 K | – | 237900
[1], 313.7 K | – | 242200
[1], 315.2 K | – | 237700
[1], 317.3 K | – | 241000
[1], 319.5 K | – | 261500
[1], 320.7 K | – | 266800
[2], Crystal 1 | 1.01 | –
[2], Crystal 2 | 1.42 | –

Conditions | Triple point temperature [K]
Crystal 1, DSC | 438.6
Crystal 2, DTA | 249.5

BrC12CC3CC(CC(C3)C1)C2 [1-bromotricyclo[3.3.1.1(3,7)]decane]
Conditions | Molar enthalpy of transition or fusion [kcal/mol] | phase transition pressure
286.4 K, Crystal 3, DTA | – | 36100 kPa
292.5 K, Crystal 3, DTA | – | 71200 kPa
299.2 K, Crystal 3, DTA | – | 93300 kPa
310.5 K, Crystal 3, DTA | – | 122500 kPa
310.7 K, Crystal 2, DTA | – | 31100 kPa
311.5 K, Crystal 3, DTA | – | 117100 kPa
316.4 K, Crystal 3, DTA | – | 151900 kPa
316.8 K, Crystal 3, DTA | – | 133700 kPa
317.9 K, Crystal 2, DTA | – | 48600 kPa
318.5 K, Crystal 2, DTA | – | 49700 kPa
321.1 K, Crystal 2, DTA | – | 48800 kPa
322.6 K, Crystal 2, DTA | – | 50400 kPa
323 K, Crystal 2, DTA | – | 40400 kPa
323.1 K, Crystal 2, DTA | – | 50000 kPa
323.9 K, Crystal 2, DTA | – | 49000 kPa
324.1 K, Crystal 2, DTA | – | 51800 kPa
324.7 K, Crystal 2, DTA | – | 45700 kPa
325.2 K, Crystal 2, DTA | – | 50900 kPa
325.4 K, Crystal 3, DTA | – | 151800 kPa
327.5 K, Crystal 3, DTA | – | 184900 kPa
329.6 K, Crystal 2, DTA | – | 72800 kPa
329.9 K, Crystal 2, DTA | – | 72400 kPa
330.6 K, Crystal 3, DTA | – | 175700 kPa
332 K, Crystal 2, DTA | – | 74500 kPa
333.7 K, Crystal 3, DTA | – | 227100 kPa
335.1 K, Crystal 2, DTA | – | 73100 kPa
337 K, Crystal 3, DTA | – | 199700 kPa
337.3 K, Crystal 2, DTA | – | 100700 kPa
337.4 K, Crystal 2, DTA | – | 95400 kPa
337.8 K, Crystal 2, DTA | – | 101000 kPa
342.8 K, Crystal 3, DTA | – | 256100 kPa
343.5 K, Crystal 2, DTA | – | 118200 kPa
347.6 K, Crystal 2, DTA | – | 128300 kPa
348.3 K, Crystal 2, DTA | – | 126000 kPa
351.4 K, Crystal 2, DTA | – | 126900 kPa
355.9 K, Crystal 2, DTA | – | 138100 kPa
358.3 K, Crystal 2, DTA | – | 153800 kPa
359 K, Crystal 2, DTA | – | 154300 kPa
362.3 K, Crystal 2, DTA | – | 155500 kPa
363.9 K, Crystal 2, DTA | – | 177800 kPa
369 K, Crystal 2, DTA | – | 182300 kPa
369.7 K, Crystal 2, DTA | – | 189300 kPa
372.5 K, Crystal 2, DTA | – | 178800 kPa
374.4 K, Crystal 2, DTA | – | 205600 kPa
377.4 K, Crystal 2, DTA | – | 205400 kPa
381.6 K, Crystal 2, DTA | – | 204700 kPa and 234100 kPa
382.7 K, Crystal 2, DTA | – | 224800 kPa
383.4 K, Crystal 2, DTA | – | 232100 kPa
389.6 K, Crystal 2, DTA | – | 255000 kPa
390.9 K, Crystal 2, DTA | – | 255000 kPa
392.5 K, Crystal 2, DTA | – | 261500 kPa
404.9 K, Crystal 1, DTA | – | 25800 kPa
406 K, Crystal 1, DTA | – | 32500 kPa
411.8 K, Crystal 1, DTA | – | 61300 kPa
414.6 K, Crystal 1, DTA | – | 56200 kPa
415.8 K, Crystal 1, DTA | – | 78400 kPa
436.7 K, Crystal 1, DTA | – | 160000 kPa
[2], Crystal 1 | 0.777 | –
[2], Crystal 2 | 1.6 | –
[2], Crystal 3 | 0.301 | –

Conditions | Triple point temperature [K]
Crystal 1, DTA | 392
Crystal 2, DTA | 310.8
Crystal 3, DTA | 282.6
